Reference: US9234200B2, “Oligonucleotide, glucocorticoid sensitivity enhancer, pharmaceutical composition, and expression vector” (National University Corporation Tokyo University of …, priority 2011, dated 2016)
Where two headings read alike, the source gives them in different places.

Columns and labels:
Raji cells [1] = assay: BrdU incorporation assay, glucocorticoid sensitivity of oligonucleotide 4-expressing Raji cells; type: cell-based, human; details: for BrdU incorporation: absorbance
Protocol: In order to examine the glucocorticoid sensitivity of the oligonucleotide 4-expressin Raji cells, BrdU incorporation assay was performed in the same manner as in Example 2, and cell proliferation was quantified. The concentration of dexamethasone was set to 0 μM (no addition) or 5 μM. Each experiment was repeated in triplicate. The values shown in Table 13 are average of thereof.

Raji cells [2] = assay: BrdU incorporation assay, glucocorticoid sensitivity of oligonucleotide-transfected Raji cells; type: cell-based, human; details: for BrdU incorporation: absorbance at 450 nm
Protocol: In order to examine the change of glucocorticoid sensitivity of cells caused by introduction of oligonucleotide 1, cell proliferation was quantified by a 5-bromo-2′-deoxyuridine (BrdU) incorporation assay. Dexamethasone (manufactured by Biomol) was used as a glucocorticoid. The concentration of dexamethasone was set to varied concentrations of 0 μM (no addition), 0.1 μM, 0.5 μM, 1 μM, 5 μM, and 10 μM.
Raji cells were cultured in serum-free RPMI1640 medium for 12 hours to synchronize the cell cycle, and then re-suspended in RPMI1640 medium supplemented with serum and inoculated onto a 96-well plate.
After dexamethasone was added, the cells were cultured for 22 hours. Then, BrdU was added thereto, and the cells were cultured for another 2 hours. After centrifugation, the supernatant was discarded, and the cells were dried and fixed. The fixed cells were allowed to react with a peroxidase-labeled anti-BrdU antibody for 1 hour at room temperature. Subsequently, the cells were washed three times with PBS, and tetramethylbenzidine was added thereto. When noticeable coloring was observed, the reaction was stopped by adding H2SO4 (1M). After vigorous agitation, absorbance at 450 nm was measured using a plate reader.
Using the Raji cells to which dexamethasone was not added as a control, cell proliferation inhibitory rate (%) was calculated based on the relative ratio of the obtained absorbance. Here, statistical significance was assessed with one-way analysis of variance and multiple comparison. Tukey's multiple comparison was used for the multiple comparison. A significance level of P<0.05 (vs. no addition of oligonucleotide) was regarded as a significant difference.
BrdU incorporation assay was performed in the same manner as in the above, and alternation of the glucocorticoid sensitivity of the cells caused by the introduction of any one of oligonucleotides 2 to 5 was examined. Each experiment was carried out in quadruplicate. The values shown in Table 7 are average values thereof.

GRα and GRβ [3] = assay: GRα and GRβ expression levels in Raji cells transfected with oligonucleotide (RT-PCR and PCR); type: cell-based, human;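 for GAPDH: mean of three independent experiments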
Protocol: Raji cells (manufactured by Japan Health Science Foundation) derived from human Burkitt's lymphoma were used in experiments.
Raji cells were cultured and maintained in RPMI1640 medium (manufactured by Gibco) at 37° C. in an atmosphere of 5% CO2, the RPMI1640 medium being supplemented with 10% fetal bovine serum (FBS) (manufactured by Filtoron), 100 U/ml penicillin, and 100 μg/ml streptomycin.
2×10^6 Raji cells were washed with phosphate-buffered saline (PBS) and suspended in 100 μl transfection reagent of an Amaxa cell line Nucleofector Kit V (manufactured by Lonza).
After the Raji cells were cultured in the above-described medium for 24 hours, the Raji cells were used for subsequent experiments.
The expression level of glyceraldehyde-3-phosphate dehydrogenase (GAPDH) was determined as an endogenous control.
After the Raji cells were washed with PBS, RNA was extracted using a FastPure RNA Kit (manufactured by Takara Bio Inc.), and reverse transcription was performed using a PrimeScript 1st strand cDNA synthesis kit (manufactured by Takara Bio Inc.). The obtained cDNA was amplified using Platinum Taq DNA polymerase (manufactured by Invitrogen) and PCR primers (having the base sequences shown in Table 2) specific for the gene of interest. The PCR conditions included: performing initial denaturation at 94° C. for 2 minutes; performing 35 cycles of denaturation (94° C. for 30 seconds), annealing (55° C. for 30 seconds), and extension (72° C. for 1 minute); and then performing final extension at 72° C. for 4 minutes.
After the PCR was performed, DNA was separated by […] electrophoresis on a 2% agarose gel containing ethidium bromide, and the intensity of bands was quantified using an image analyzer GEL PRINT 2000i/VGA (manufactured by Genomic Solutions).

GRα and GRβ [4] = assay: GRα and GRβ expression levels in oligonucleotide 4-expressing Raji cells
[5] = expression level (band intensity), oligonucleotide 300 nM by electroporation, 24 h
[6] = Raji cells constitutively expressing oligonucleotide 4
[7] = expression level (band intensity), Raji cells constitutively expressing oligonucleotide 4 (retrovirus vector)
[8] = expression level (band intensity), Raji cells constitutively expressing oligonucleotide 4 (retrovirus vector), listed as oligonucleotide 4

Q: Which BrdU incorporation (Raji cells [1]; dexamethasone 5 μM, label dexamethasone = Control Raji cell) does the source give for `C[C@@H]1C[C@H]2[C@@H]3CCC4=CC(=O)C=C[C@]4(C)[C@@]3(F)[C@@H](O)C[C@]2(C)[C@@]1(O)C(=O)CO` [dexamethasone, reference compound] here?
A: 1.07

Q: What about the inhibition at 0.1 µM (Raji cells [2]; Homo sapiens, Raji, dexamethasone 0.1 μM vs no dexamethasone, triplicate, label dexamethasone = no oligonucleotide introduced, read-out: cell proliferation inhibitory rate) of the same compound?
A: 13.4%

Q: What about the inhibition at 0.1 µM (Raji cells [2]; Homo sapiens, Raji, dexamethasone 0.1 μM, quadruplicate (Table 7), label dexamethasone = no oligonucleotide transfected, read-out: cell proliferation inhibitory rate) of the same compound?
A: 13.2%

Q: And the inhibition at 0.5 µM (Raji cells [2]; Homo sapiens, Raji, dexamethasone 0.5 μM vs no dexamethasone, triplicate, label dexamethasone = no oligonucleotide introduced, read-out: cell proliferation inhibitory rate)?
A: 16.2%

Q: And the inhibition at 0.5 µM (Raji cells [2]; Homo sapiens, Raji, dexamethasone 0.5 μM, quadruplicate (Table 7), label dexamethasone = no oligonucleotide transfected, read-out: cell proliferation inhibitory rate)?
A: 17.6%

Q: And the inhibition at 1 µM (Raji cells [2]; Homo sapiens, Raji, dexamethasone 1 μM vs no dexamethasone, triplicate, label dexamethasone = no oligonucleotide introduced, read-out: cell proliferation inhibitory rate)?
A: 12.6%

Q: And the inhibition at 1 µM (Raji cells [2]; Homo sapiens, Raji, dexamethasone 1 μM, quadruplicate (Table 7), label dexamethasone = no oligonucleotide transfected, read-out: cell proliferation inhibitory rate)?
A: 22.2%

Q: What about the inhibition at 5 µM (Raji cells [2]; Homo sapiens, Raji, dexamethasone 5 μM vs no dexamethasone, triplicate, label dexamethasone = no oligonucleotide introduced, read-out: cell proliferation inhibitory rate) of the same compound?
A: 23.3%

Q: What about the inhibition at 5 µM (Raji cells [2]; Homo sapiens, Raji, dexamethasone 5 μM, quadruplicate (Table 7), label dexamethasone = no oligonucleotide transfected, read-out: cell proliferation inhibitory rate) of the same compound?
A: 21.7%

Q: And the inhibition at 10 µM (Raji cells [2]; Homo sapiens, Raji, dexamethasone 10 μM vs no dexamethasone, triplicate, label dexamethasone = no oligonucleotide introduced, read-out: cell proliferation inhibitory rate)?
A: 23.9%

Q: What about the BrdU incorporation (Raji cells [2]; dexamethasone 0.1 μM, triplicate, label dexamethasone = no oligonucleotide introduced) of the same compound?
A: 0.475

Q: What about the BrdU incorporation (Raji cells [2]; dexamethasone 0.5 μM, triplicate, label dexamethasone = no oligonucleotide introduced) of the same compound?
A: 0.461

Q: And the BrdU incorporation (Raji cells [2]; dexamethasone 1 μM, triplicate, label dexamethasone = no oligonucleotide introduced)?
A: 0.479

Q: And the BrdU incorporation (Raji cells [2]; dexamethasone 5 μM, triplicate, label dexamethasone = no oligonucleotide introduced)?
A: 0.422

Q: What about the BrdU incorporation (Raji cells [2]; dexamethasone 10 μM, triplicate, label dexamethasone = no oligonucleotide introduced) of the same compound?
A: 0.418

Q: “Oligonucleotide 4: an oligonucleotide having a base sequence represented by SEQ ID NO: 4 (5′-TTTGTCCCCATTATATAGCATTT-3′) (listed as DNA, chemistry not given here)” was tested. Which BrdU incorporation (Raji cells [1]; oligonucleotide 4-expressing Raji cell, dexamethasone 0 μM) did it give?
A: 1.13

Q: What about the glucocorticoid sensitivity (Raji cells [1]; constitutive expression of oligonucleotide 4 in Raji cells, in words) of the same compound?
A: increases glucocorticoid sensitivity

Q: And the “cell proliferation inhibitory rate” value (Raji cells [2]; dexamethasone 0.1 μM, quadruplicate (Table 7), label dexamethasone = no oligonucleotide transfected)?
A: 12.464%

Q: What about the “cell proliferation inhibitory rate” value (Raji cells [2]; dexamethasone 0.5 μM, quadruplicate (Table 7), label dexamethasone = no oligonucleotide transfected) of the same compound?
A: 23.397%

Q: And the “cell proliferation inhibitory rate” value (Raji cells [2]; dexamethasone 1 μM, quadruplicate (Table 7), label dexamethasone = no oligonucleotide transfected)?
A: 28.863%

Q: And the “cell proliferation inhibitory rate” value (Raji cells [2]; dexamethasone 5 μM, quadruplicate (Table 7), label dexamethasone = no oligonucleotide transfected)?
A: 28.061%

Q: What about the GAPDH (GRα and GRβ [3]; expression level (band intensity), endogenous control, oligonucleotide 300 nM by electroporation, 24 h) of the same compound?
A: 2991.776

Q: And the GRα (GRα and GRβ [3]; [5])?
A: 3157.440

Q: What about the GRβ (GRα and GRβ [3]; [5]) of the same compound?
A: 4592.806

Q: And the GRα/GAPDH (GRα and GRβ [3]; oligonucleotide 300 nM)?
A: 1.057

Q: And the GRβ/GAPDH (GRα and GRβ [3]; oligonucleotide 300 nM)?
A: 1.533

Q: And the GRα/GAPDH (GRα and GRβ [4]; [6])?
A: 0.747

Q: What about the GRβ/GAPDH (GRα and GRβ [4]; [6]) of the same compound?
A: 0.290

Q: What about the GAPDH (GRα and GRβ [4]; expression level (band intensity), endogenous control, Raji cells constitutively expressing oligonucleotide 4 (retrovirus vector)) of the same compound?
A: 6428.135

Q: And the GRα (GRα and GRβ [4]; [7])?
A: 4803.456

Q: And the GRβ (GRα and GRβ [4]; [7])?
A: 1866.325

Q: And the GRα (GRα and GRβ [4]; [8])?
A: increases the expression level of GRα

Q: And the GRβ (GRα and GRβ [4]; [8])?
A: decreases the expression level of GRβ
